Measured values published in the OligoGym collection.
Values joined by “and” are separate entries in the source; they are usually repeats but may differ in a detail not shown here. Equal values may be shown once. HELM strings list units from the 5' end as sugar, base in round brackets, then linkage (d deoxyribose, r ribose, m 2'-O-methyl, p phosphodiester). Methylation of C is not given here. [moe] = 2'-O-(2-methoxyethyl) (MOE); [cEt] = constrained ethyl (cEt); [sp] = phosphorothioate linkage

Target: HBV
Details: ASO

Substance | target mRNA inhibition (HepG2, 0.07 µM) | other results
RNA1{[moe](G)[sp].[moe](C)[sp].[moe](A)[sp].[moe](C)[sp].[moe](T)[sp].d(A)[sp].d(G)[sp].d(T)[sp].d(A)[sp].d(A)[sp].d(A)[sp].d(C)[sp].d(T)[sp].d(G)[sp].[moe](A)[sp].[moe](G)}$$$$V2.0 | 60% | 
RNA1{[moe](G)[sp].[moe](C)[sp].[moe](A)[sp].[moe](G)[sp].[moe](A)[sp].d(G)[sp].d(G)[sp].d(T)[sp].d(G)[sp].d(A)[sp].d(A)[sp].d(G)[sp].d(C)[sp].d(G)[sp].[moe](A)[sp].[moe](A)[sp].[moe](G)}$$$$V2.0 | 76% and 59% | 
RNA1{[moe](G)[sp].[moe](C)[sp].[moe](A)[sp].[moe](G)[sp].[moe](T)[sp].d(A)[sp].d(T)[sp].d(G)[sp].d(G)[sp].d(A)[sp].d(T)[sp].d(C)[sp].d(G)[sp].d(G)[sp].[moe](C)[sp].[moe](A)}$$$$V2.0 | 67% and 61% | 
RNA1{[moe](G)[sp].[moe](C)[sp].[moe](A)[sp].[moe](G)[sp].d(A)[sp].d(G)[sp].d(G)[sp].d(T)[sp].d(G)[sp].d(A)[sp].d(A)[sp].d(G)[sp].d(C)[sp].[moe](G)[sp].[moe](A)[sp].[moe](A)[sp].[moe](G)}$$$$V2.0 | 52% | 
RNA1{[moe](G)[sp].[moe](C)[sp].[moe](A)[sp].[moe](G)[sp].d(T)[sp].d(A)[sp].d(T)[sp].d(G)[sp].d(G)[sp].d(A)[sp].d(T)[sp].d(C)[sp].d(G)[sp].[moe](G)[sp].[moe](C)[sp].[moe](A)}$$$$V2.0 | 69% and 61% | 
RNA1{[moe](G)[sp].[moe](C)[sp].[moe](A)[sp].d(C)[sp].d(T)[sp].d(A)[sp].d(G)[sp].d(T)[sp].d(A)[sp].d(A)[sp].d(A)[sp].d(C)[sp].[moe](T)[sp].[moe](G)[sp].[moe](A)[sp].[moe](G)}$$$$V2.0 | 59% | 
RNA1{[moe](G)[sp].[moe](C)[sp].[moe](A)[sp].d(G)[sp].d(A)[sp].d(G)[sp].d(G)[sp].d(T)[sp].d(G)[sp].d(A)[sp].d(A)[sp].d(G)[sp].[moe](C)[sp].[moe](G)[sp].[moe](A)[sp].[moe](A)}$$$$V2.0 | 58% and 64% | 
RNA1{[moe](G)[sp].[moe](C)[sp].d(A)[sp].d(C)[sp].d(T)[sp].d(A)[sp].d(G)[sp].d(T)[sp].d(A)[sp].d(A)[sp].d(A)[sp].[moe](C)[sp].[moe](T)[sp].[moe](G)[sp].[moe](A)[sp].[moe](G)[sp].[moe](C)}$$$$V2.0 | 75% and 78% | 
RNA1{[moe](G)[sp].[moe](C)[sp].d(A)[sp].d(C)[sp].d(T)[sp].d(A)[sp].d(G)[sp].d(T)[sp].d(A)[sp].d(A)[sp].d(A)[sp].[moe](C)[sp].[moe](T)[sp].[moe](G)[sp].[moe](A)[sp].[moe](G)}$$$$V2.0 | 54% and 47% | 
RNA1{[moe](G)[sp].[moe](C)[sp].d(A)[sp].d(T)[sp].d(A)[sp].d(G)[sp].d(C)[sp].d(A)[sp].d(G)[sp].d(C)[sp].d(A)[sp].[moe](G)[sp].[moe](G)[sp].[moe](A)[sp].[moe](T)[sp].[moe](G)}$$$$V2.0 | 39% and 24% | 
RNA1{[moe](G)[sp].[moe](G)[sp].[cEt](C)[sp].[cEt](A)[sp].d(T)[sp].d(A)[sp].d(G)[sp].d(C)[sp].d(A)[sp].d(G)[sp].d(C)[sp].d(A)[sp].d(G)[sp].[moe](G)[sp].[cEt](A)[sp].[moe](T)[sp].[moe](G)}$$$$V2.0 |  | target mRNA inhibition (HepG2, 0.009375 µM): 27%; target mRNA inhibition (HepG2, 0.01875 µM): 29%; target mRNA inhibition (HepG2, 0.0375 µM): 45%; target mRNA inhibition (HepG2, 0.075 µM): 56%; target mRNA inhibition (HepG2, 0.15 µM): 78%; target mRNA inhibition (HepG2, 0.3 µM): 84%
RNA1{[moe](G)[sp].[moe](G)[sp].[moe](C)[sp].[moe](A)[sp].d(T)[sp].d(A)[sp].d(G)[sp].d(C)[sp].d(A)[sp].d(G)[sp].d(C)[sp].d(A)[sp].d(G)[sp].[moe](G)[sp].[moe](A)[sp].[moe](T)[sp].[moe](G)}$$$$V2.0 | 57% and 53% | 
RNA1{[moe](G)[sp].[moe](G)[sp].[moe](C)[sp].[moe](A)[sp].d(T)[sp].d(A)[sp].d(G)[sp].d(C)[sp].d(A)[sp].d(G)[sp].d(C)[sp].d(A)[sp].d(G)[sp].[moe](G)[sp].[moe](A)[sp].[moe](T)}$$$$V2.0 | 57% and 50% | 
RNA1{[moe](G)[sp].[moe](G)[sp].[moe](C)[sp].d(A)[sp].d(T)[sp].d(A)[sp].d(G)[sp].d(C)[sp].d(A)[sp].d(G)[sp].d(C)[sp].d(A)[sp].d(G)[sp].[cEt](G)[sp].[cEt](A)[sp].[cEt](T)}$$$$V2.0 | 56% and 44% | 
RNA1{[moe](G)[sp].[moe](G)[sp].[moe](T)[sp].[moe](G)[sp].[moe](A)[sp].d(A)[sp].d(G)[sp].d(C)[sp].d(G)[sp].d(A)[sp].d(A)[sp].d(G)[sp].d(T)[sp].d(G)[sp].[moe](C)[sp].[moe](A)[sp].[moe](C)}$$$$V2.0 | 64% and 66% | 
RNA1{[moe](G)[sp].[moe](G)[sp].[moe](T)[sp].d(G)[sp].d(A)[sp].d(A)[sp].d(G)[sp].d(C)[sp].d(G)[sp].d(A)[sp].d(A)[sp].d(G)[sp].d(T)[sp].[cEt](G)[sp].[cEt](C)[sp].[cEt](A)}$$$$V2.0 | 72% and 83% | target mRNA inhibition (HepG2, 0.0092593 µM): 15%; target mRNA inhibition (HepG2, 0.0277778 µM): 42%; target mRNA inhibition (HepG2, 0.0833333 µM): 67%; target mRNA inhibition (HepG2, 0.25 µM): 88%
RNA1{[moe](G)[sp].[moe](G)[sp].d(C)[sp].d(A)[sp].d(T)[sp].d(A)[sp].d(G)[sp].d(C)[sp].d(A)[sp].d(G)[sp].d(C)[sp].[moe](A)[sp].[moe](G)[sp].[moe](G)[sp].[moe](A)[sp].[moe](T)[sp].[moe](G)}$$$$V2.0 | 55% and 48% | 
RNA1{[moe](G)[sp].[moe](T)[sp].[moe](G)[sp].[moe](A)[sp].[moe](A)[sp].d(G)[sp].d(C)[sp].d(G)[sp].d(A)[sp].d(A)[sp].d(G)[sp].d(T)[sp].d(G)[sp].d(C)[sp].[moe](A)[sp].[moe](C)[sp].[moe](A)}$$$$V2.0 | 77% and 75% | target mRNA inhibition (HepG2, 0.0092593 µM): 0%; target mRNA inhibition (HepG2, 0.0277778 µM): 4%; target mRNA inhibition (HepG2, 0.0833333 µM): 32%; target mRNA inhibition (HepG2, 0.25 µM): 62%
RNA1{[moe](G)[sp].[moe](T)[sp].[moe](G)[sp].[moe](A)[sp].[moe](A)[sp].d(G)[sp].d(C)[sp].d(G)[sp].d(A)[sp].d(A)[sp].d(G)[sp].d(T)[sp].d(G)[sp].d(C)[sp].[moe](A)[sp].[moe](C)}$$$$V2.0 | 70% and 58% | 
RNA1{[moe](G)[sp].[moe](T)[sp].[moe](G)[sp].[moe](A)[sp].d(A)[sp].d(G)[sp].d(C)[sp].d(G)[sp].d(A)[sp].d(A)[sp].d(G)[sp].d(T)[sp].d(G)[sp].[moe](C)[sp].[moe](A)[sp].[moe](C)[sp].[moe](A)}$$$$V2.0 | 72% and 62% | 
RNA1{[moe](G)[sp].[moe](T)[sp].[moe](G)[sp].[moe](C)[sp].[moe](A)[sp].[moe](G)[sp].d(A)[sp].d(G)[sp].d(G)[sp].d(T)[sp].d(G)[sp].d(A)[sp].d(A)[sp].d(G)[sp].d(C)[sp].[moe](G)[sp].[moe](A)}$$$$V2.0 | 78% and 70% | target mRNA inhibition (HepG2, 0.0092593 µM): 7%; target mRNA inhibition (HepG2, 0.0277778 µM): 4%; target mRNA inhibition (HepG2, 0.0833333 µM): 38%; target mRNA inhibition (HepG2, 0.25 µM): 76%
RNA1{[moe](G)[sp].[moe](T)[sp].[moe](G)[sp].d(A)[sp].d(A)[sp].d(G)[sp].d(C)[sp].d(G)[sp].d(A)[sp].d(A)[sp].d(G)[sp].d(T)[sp].[moe](G)[sp].[moe](C)[sp].[moe](A)[sp].[moe](C)}$$$$V2.0 | 70% and 68% | 
